This note sets out measurements from US12378231B2, “Small molecules as monoacylglycerol lipase (MAGL) inhibitors, compositions and use thereof” (APOGEE PHARMACEUTICALS, INC., priority 2023, dated 2025).

Like-named read-outs stand apart in the source and are kept apart here.

For one experiment, the target named is human recombinant FAAH (Homo sapiens (Human), UniProt O00519). The experiment in a line: In vitro inhibition of human recombinant FAAH activity (Cayman FAAH inhibitor screening kit, AMC arachidonoyl amide hydrolysis). The format is biochemical. The source says: In brief, FAAH hydrolyzes AMC arachidonoyl amide resulting in the release of the fluorescent product, while the inhibitor will inhibit the FAAH activity and thus reduce the fluorescent signal.

In a further experiment the target is human recombinant MAGL (Homo sapiens (Human), UniProt Q99685). The experiment in a line: In vitro inhibition of human recombinant MAGL activity (Cayman inhibitor screening kit, 4-nitrophenylacetate hydrolysis). The format is biochemical. The source says:
The inhibitory effect of the synthetic chemicals on activity of human recombinant MAGL was studied using commercial inhibitor screening kit (Cayman Chemical). […] The absorbance of the yellow product can be analyzed using the plate reader. […]

[1] abbreviates: human recombinant MAGL, read-out: Inhibition on MAGL activity (IC50).

Sequence of human recombinant MAGL (Q99685 whole entry): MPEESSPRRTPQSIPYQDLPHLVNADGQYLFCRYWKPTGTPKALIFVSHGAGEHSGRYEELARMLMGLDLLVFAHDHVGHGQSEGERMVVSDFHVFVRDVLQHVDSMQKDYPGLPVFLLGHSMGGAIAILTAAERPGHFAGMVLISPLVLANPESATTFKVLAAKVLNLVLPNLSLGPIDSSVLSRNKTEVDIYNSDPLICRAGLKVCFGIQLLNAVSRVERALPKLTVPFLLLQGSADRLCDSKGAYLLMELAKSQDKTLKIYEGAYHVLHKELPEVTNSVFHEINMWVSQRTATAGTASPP
Sequence of human recombinant FAAH (O00519 whole entry): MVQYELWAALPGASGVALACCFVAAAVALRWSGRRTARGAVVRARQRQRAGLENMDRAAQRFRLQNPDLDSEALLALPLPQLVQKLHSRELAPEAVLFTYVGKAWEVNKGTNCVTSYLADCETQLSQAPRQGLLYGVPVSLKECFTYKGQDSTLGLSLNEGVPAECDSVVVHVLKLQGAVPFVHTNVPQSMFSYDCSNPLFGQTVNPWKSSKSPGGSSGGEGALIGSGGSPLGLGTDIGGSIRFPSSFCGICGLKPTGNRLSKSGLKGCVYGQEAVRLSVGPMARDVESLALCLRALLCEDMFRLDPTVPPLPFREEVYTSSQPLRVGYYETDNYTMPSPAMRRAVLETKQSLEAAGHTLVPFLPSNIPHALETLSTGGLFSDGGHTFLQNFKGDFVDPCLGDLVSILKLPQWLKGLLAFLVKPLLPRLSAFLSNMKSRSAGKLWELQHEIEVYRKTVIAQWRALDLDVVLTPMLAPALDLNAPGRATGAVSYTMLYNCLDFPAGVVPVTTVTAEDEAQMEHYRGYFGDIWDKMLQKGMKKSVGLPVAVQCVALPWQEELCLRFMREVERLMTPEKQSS

As for `O=C(N1CCCCC1)N1CCN(C(c2ccc3c(c2)COCO3)c2ccc3c(c2)COCO3)CC1` [Example 17, (4-(bis(4H-benzo[d][1,3]dioxin-6-yl)methyl)piperazin-1-yl)(piperidin-1-yl)methanone], the figures for the IC50 on human recombinant FAAH and at human recombinant MAGL (setting [1]) were > 50 µM and > 100 nM, respectively.

For the compound `CCN(CC)C(=O)N1CCN(C(c2ccc3c(c2)COCO3)c2ccc3c(c2)COCO3)CC1` [Example 18, 4-(bis(4H-benzo[d][1,3]dioxin-6-yl)methyl)-N,N-diethylpiperazine-1-carboxamide], the IC50 was > 50 µM at human recombinant FAAH and > 100 nM on human recombinant MAGL (setting [1]).

On to `O=C(Oc1ccc([N+](=O)[O-])cc1F)N1CCN(C(c2ccc3c(c2)COCO3)c2ccc3c(c2)COCO3)CC1` [Example 19, 2-fluoro-4-nitrophenyl 4-(bis(4H-benzo[d][1,3]dioxin-6-yl)methyl)piperazine-1-carboxylate], for which the IC50 at human recombinant FAAH was > 50 µM; on human recombinant MAGL (setting [1]), > 100 nM.

Regarding `O=C(Oc1ccccn1)N1CCN(C(c2ccc3c(c2)COCO3)c2ccc3c(c2)COCO3)CC1` [Example 20, pyridin-2-yl 4-(bis(4H-benzo[d][1,3]dioxin-6-yl)methyl)piperazine-1-carboxylate], the IC50 at human recombinant FAAH is > 50 µM; at human recombinant MAGL (setting [1]), > 100 nM.

Take `S=C(N1CCN(C(c2ccc3c(c2)COCO3)c2ccc3c(c2)COCO3)CC1)n1cncn1` [Example 21, (4-(bis(4H-benzo[d][1,3]dioxin-6-yl)methyl)piperazin-1-yl)(1H-1,2,4-triazol-1-yl)methanethione]: the IC50 on human recombinant FAAH was > 50 µM; on human recombinant MAGL (setting [1]) it was > 100 nM.

Regarding `O=C(On1nnc2ccc(C(F)(F)F)cc21)N1CCN(C(c2ccc3c(c2)COCO3)c2ccc3c(c2)COCO3)CC1` [Example 22, 6-(trifluoromethyl)-1H-benzo[d][1,2,3]triazol-1-yl 4-(bis(4H-benzo[d][1,3]dioxin-6-yl)methyl)piperazine-1-carboxylate], the IC50 was > 50 µM on human recombinant FAAH and > 100 nM at human recombinant MAGL (setting [1]).

On to `O=C(On1nnc2cccnc21)N1CCN(C(c2ccc3c(c2)COCO3)c2ccc3c(c2)COCO3)CC1` [Example 23, 3H-[1,2,3]triazolo[4,5-b]pyridin-3-yl 4-(bis(4H-benzo[d][1,3]dioxin-6-yl)methyl)piperazine-1-carboxylate], for which the IC50 was > 10 µM on human recombinant FAAH and > 100 nM on human recombinant MAGL (setting [1]).

Consider `N#Cc1cnn(C(=O)N2CCN(C(c3ccc4c(c3)COCO4)c3ccc4c(c3)COCO4)CC2)c1` [Example 24, 1-(4-(bis(4H-benzo[d][1,3]dioxin-6-yl)methyl)piperazine-1-carbonyl)-1H-pyrazole-4-carbonitrile], for which the IC50 on human recombinant FAAH is 1 to 10 µM; at human recombinant MAGL (setting [1]), 1 to 10 nM.

As for `O=C(N1CCN(C(c2ccc3c(c2)COCO3)c2ccc3c(c2)COCO3)CC1)n1cc(-c2ccccc2)nn1` [Example 25, (4-(bis(4H-benzo[d][1,3]dioxin-6-yl)methyl)piperazin-1-yl)(4-phenyl-1H-1,2,3-triazol-1-yl)methanone], the IC50 is > 10 µM on human recombinant FAAH and 10 to 100 nM on human recombinant MAGL (setting [1]).

Take `O=C(N1CCN(C(c2ccc3c(c2)COCO3)c2ccc3c(c2)COCO3)CC1)n1ncc(-c2ccccc2)n1` [Example 26, (4-(bis(4H-benzo[d][1,3]dioxin-6-yl)methyl)piperazin-1-yl)(4-phenyl-2H-1,2,3-triazol-2-yl)methanone]: the figures for the IC50 on human recombinant FAAH and on human recombinant MAGL (setting [1]) were 1 to 10 µM and 10 to 100 nM, respectively.

`O=C(On1nnc2ccccc21)N1CCN(C(c2ccc3c(c2)COCO3)c2ccc3c(c2)COCO3)CC1` [Example 27, 1H-benzo[d][1,2,3]triazol-1-yl 4-(bis(4H-benzo[d][1,3]dioxin-6-yl)methyl)piperazine-1-carboxylate]: the IC50 at human recombinant FAAH is > 10 µM; at human recombinant MAGL, 10 to 100 nM.

On to `Cc1ncn(C(=O)N2CCN(C(c3ccc4c(c3)COCO4)c3ccc4c(c3)COCO4)CC2)n1` [Example 28, (4-(bis(4H-benzo[d][1,3]dioxin-6-yl)methyl)piperazin-1-yl)(3-methyl-1H-1,2,4-triazol-1-yl)methanone], for which the IC50 on human recombinant FAAH was > 20 µM; on human recombinant MAGL (setting [1]), 1 to 20 nM.

On to `O=C(Oc1c(F)c(F)c(F)c(F)c1F)N1CCN(C(c2ccc3c(c2)COCO3)c2ccc3c(c2)COCO3)CC1` [Example 29, pentafluorophenyl 4-(bis(4H-benzo[d][1,3]dioxin-6-yl)methyl)piperazine-1-carboxylate], for which the IC50 was > 50 µM on human recombinant FAAH and > 100 nM at human recombinant MAGL (setting [1]).

Regarding `CC(C)=NOC(=O)N1CCN(C(c2ccc3c(c2)COCO3)c2ccc3c(c2)COCO3)CC1` [Example 30, propan-2-one O-(4-(bis(4H-benzo[d][1,3]dioxin-6-yl)methyl)piperazine-1-carbonyl) oxime], the results for the IC50 at human recombinant FAAH and at human recombinant MAGL (setting [1]) were > 50 µM and > 10000 nM, respectively.

Regarding `O=C(N1CCN(C(c2ccc3c(c2)COCO3)c2ccc3c(c2)COCO3)CC1)n1ncc2ccccc21` [Example 35, (4-(bis(4H-benzo[d][1,3]dioxin-6-yl)methyl)piperazin-1-yl)(1H-indazol-1-yl)methanone], the results for the IC50 at human recombinant FAAH and at human recombinant MAGL (setting [1]) were > 50 µM and > 100 nM, respectively.

In the case of `N#Cc1ncn(C(=O)N2CCN(C(c3ccc4c(c3)COCO4)c3ccc4c(c3)COCO4)CC2)n1` [Example 36, 1-(4-(bis(4H-benzo[d][1,3]dioxin-6-yl)methyl)piperazine-1-carbonyl)-1H-1,2,4-triazole-3-carbonitrile], the figures for the IC50 at human recombinant FAAH and on human recombinant MAGL (setting [1]) were > 10 µM and 10 to 100 nM, respectively.

For `O=C(N1CCN(C(c2ccc3c(c2)COCO3)c2ccc3c(c2)COCO3)CC1)n1nnc2ccc(Br)cc21` [Example 37, (4-(bis(4H-benzo[d][1,3]dioxin-6-yl)methyl)piperazin-1-yl)(6-bromo-1H-benzo[d][1,2,3]triazol-1-yl)methanone], the IC50 on human recombinant FAAH was > 50 µM; on human recombinant MAGL (setting [1]), 1 to 10 nM.

Regarding `O=C(N1CCN(C(c2ccc3c(c2)COCO3)c2ccc3c(c2)COCO3)CC1)n1nnc2cc(Br)ccc21` [Example 38, (4-(bis(4H-benzo[d][1,3]dioxin-6-yl)methyl)piperazin-1-yl)(5-bromo-1H-benzo[d][1,2,3]triazol-1-yl)methanone], the IC50 on human recombinant FAAH is > 50 µM; at human recombinant MAGL (setting [1]) it was 10 to 100 nM.

As for `O=C(N1CCN(C(c2ccc3c(c2)COCO3)c2ccc3c(c2)COCO3)CC1)n1nnc2ccc(F)cc21` [Example 39, (4-(bis(4H-benzo[d][1,3]dioxin-6-yl)methyl)piperazin-1-yl)(6-fluoro-1H-benzo[d][1,2,3]triazol-1-yl)methanone], the IC50 on human recombinant FAAH was ~50 µM; on human recombinant MAGL (setting [1]), 1 to 10 nM.

Turning to `O=C(N1CCN(C(c2ccc3c(c2)COCO3)c2ccc3c(c2)COCO3)CC1)n1nnc2cc(F)ccc21` [Example 40, (4-(bis(4H-benzo[d][1,3]dioxin-6-yl)methyl)piperazin-1-yl)(5-fluoro-1H-benzo[d][1,2,3]triazol-1-yl)methanone], the concentration for half-maximal inhibition (IC50) is 1 to 20 µM at human recombinant FAAH and 10 to 100 nM at human recombinant MAGL (setting [1]).

Turning to `O=C(N1CCN(C(c2ccc3c(c2)COCO3)c2ccc3c(c2)COCO3)CC1)n1nnc2c(Cl)cc(C(F)(F)F)cc21` [Example 42, (4-(bis(4H-benzo[d][1,3]dioxin-6-yl)methyl)piperazin-1-yl)(4-chloro-6-(trifluoromethyl)-1H-benzo[d][1,2,3]triazol-1-yl)methanone], the IC50 on human recombinant FAAH is > 20 µM; on human recombinant MAGL (setting [1]), 1 to 10 nM.

For the compound `O=C(Nc1cccnc1)N1CCN(C(c2ccc3c(c2)COCO3)c2ccc3c(c2)COCO3)CC1` [Example 43, 4-(bis(4H-benzo[d][1,3]dioxin-6-yl)methyl)-N-(pyridin-3-yl)piperazine-1-carboxamide], the IC50 is > 50 µM on human recombinant FAAH and > 100 nM at human recombinant MAGL (setting [1]).

For `O=C(N1CCN(C(c2ccc3c(c2)COCO3)c2ccc3c(c2)COCO3)CC1)n1nnc2ccc(C(F)(F)F)cc21` [Example 44, (4-(bis(4H-benzo[d][1,3]dioxin-6-yl)methyl)piperazin-1-yl)(6-(trifluoromethyl)-1H-benzo[d][1,2,3]triazol-1-yl)methanone], the IC50 on human recombinant FAAH was > 10 µM; at human recombinant MAGL (setting [1]) it was 1 to 10 nM.

Take `O=C(N1CCN(C(c2ccc3c(c2)COCO3)c2ccc3c(c2)COCO3)CC1)n1nnc2cc(C(F)(F)F)ccc21` [Example 45, (4-(bis(4H-benzo[d][1,3]dioxin-6-yl)methyl)piperazin-1-yl)(5-(trifluoromethyl)-1H-benzo[d][1,2,3]triazol-1-yl)methanone]: the results for the IC50 at human recombinant FAAH and at human recombinant MAGL (setting [1]) were > 1 µM and 10 to 100 nM, respectively.

For `O=C(N1CCN(C(c2ccc3c(c2)COCO3)c2ccc3c(c2)COCO3)CC1)n1nnc2cc3c(cc21)OCCO3` [Example 46, (4-(bis(4H-benzo[d][1,3]dioxin-6-yl)methyl)piperazin-1-yl)(6,7-dihydro-1H-[1,4]dioxino[2′,3′:4,5]benzo[1,2-d][1,2,3]triazol-1-yl)methanone], the IC50 at human recombinant FAAH is > 10 µM; at human recombinant MAGL (setting [1]) it was 10 to 100 nM.

Regarding `N#Cc1ccc2nnn(C(=O)N3CCN(C(c4ccc5c(c4)COCO5)c4ccc5c(c4)COCO5)CC3)c2c1` [Example 48, 1-(4-(bis(4H-benzo[d][1,3]dioxin-6-yl)methyl)piperazine-1-carbonyl)-1H-benzo[d][1,2,3]triazole-6-carbonitrile], the IC50 is > 20 µM at human recombinant FAAH and 1 to 10 nM at human recombinant MAGL (setting [1]).

Regarding `N#Cc1ccc2c(c1)nnn2C(=O)N1CCN(C(c2ccc3c(c2)COCO3)c2ccc3c(c2)COCO3)CC1` [Example 49, 1-(4-(bis(4H-benzo[d][1,3]dioxin-6-yl)methyl)piperazine-1-carbonyl)-1H-benzo[d][1,2,3]triazole-5-carbonitrile], the IC50 was > 20 µM on human recombinant FAAH and 10 to 100 nM at human recombinant MAGL (setting [1]).

With `O=C(N1CCN(C(c2ccc3c(c2)COCO3)c2ccc3c(c2)COCO3)CC1)n1nc2ccccn2c1=O` [Example 50, 2-(4-(bis(4H-benzo[d][1,3]dioxin-6-yl)methyl)piperazine-1-carbonyl)-[1,2,4]triazolo[4,3-a]pyridin-3(2H)-one], the IC50 at human recombinant FAAH is > 50 µM; on human recombinant MAGL (setting [1]), > 100 nM.
